Measured values as given in ChEMBL document CHEMBL3045204, “Synthesis and structureantibacterial activity relationship studies of 4-substituted phenyl-4,5-dihydrobenzo[f][1,4]oxazepin-3(2H)-thiones” (2011).
≈ marks a conversion by molar mass, not a printed value.

Key:
Format in all cases: functional
Enterococcus faecalis = experiment: Antibacterial activity Enterococcus faecalis ATCC 29212 after 16 to 20 hr by broth microdilution method
Escherichia coli = experiment: Antibacterial activity Escherichia coli ATCC 25922 after 16 to 20 hr by broth microdilution method
Candida albicans = experiment: Antifungal activity Candida albicans ATCC 90028 after 48 hr by broth microdilution method; details: ATCC 90028, 48 h
Staphylococcus aureus = experiment: Antibacterial activity Staphylococcus aureus […] after 16 to 20 hr by broth microdilution method
Pseudomonas aeruginosa = experiment: Antibacterial activity Pseudomonas aeruginosa ATCC 27853 after 16 to 20 hr by broth microdilution method

Structure (SMILES) | MIC (Enterococcus faecalis) [mg/L] | MIC (Escherichia coli) [mg/L] | MIC (Candida albicans) [mg/L] | MIC (Staphylococcus aureus) [mg/L] | MIC (Pseudomonas aeruginosa) [mg/L]
CN(C)c1ccc(N2Cc3ccccc3OCC2=S)cc1 | 25 (≈ 83.8 µM) | 200 (≈ 670 µM) | 800 (≈ 2680 µM) | 400 (≈ 1340 µM) | 100 (≈ 335 µM)
Fc1ccc(N2Cc3ccccc3OCC2=S)cc1 | 50 (≈ 183 µM) | 100 (≈ 366 µM) | 400 (≈ 1460 µM) | 800 (≈ 2930 µM) | 100 (≈ 366 µM)
OC(Cn1cncn1)(Cn1cncn1)c1ccc(F)cc1F [FLUCONAZOLE] |  |  | 0.25 (≈ 0.816 µM) |  | 
S=C1COc2ccccc2CN1c1ccc(Br)cc1 | 12.5 (≈ 37.4 µM) | 100 (≈ 299 µM) | 100 (≈ 299 µM) | 100 (≈ 299 µM) | 25 (≈ 74.8 µM)
S=C1COc2ccccc2CN1c1ccc(I)cc1 | 50 (≈ 131 µM) | 100 (≈ 262 µM) | 800 (≈ 2100 µM) | 400 (≈ 1050 µM) | 50 (≈ 131 µM)
FC(F)(F)c1cccc(N2Cc3ccccc3OCC2=S)c1 | 25 (≈ 77.3 µM) | 100 (≈ 309 µM) | 400 (≈ 1240 µM) | 400 (≈ 1240 µM) | 50 (≈ 155 µM)
S=C1COc2ccccc2CN1c1ccccc1 | 100 (≈ 392 µM) | 200 (≈ 783 µM) | 800 (≈ 3130 µM) | 800 (≈ 3130 µM) | 100 (≈ 392 µM)
O=[N+]([O-])c1cccc(N2Cc3ccccc3OCC2=S)c1 | 25 (≈ 83.2 µM) | 100 (≈ 333 µM) | 200 (≈ 666 µM) | 200 (≈ 666 µM) | 25 (≈ 83.2 µM)
S=C1COc2ccccc2CN1c1cccc(Cl)c1 | 100 (≈ 345 µM) | 200 (≈ 690 µM) | 800 (≈ 2760 µM) | 400 (≈ 1380 µM) | 200 (≈ 690 µM)
Cc1cccc(N2Cc3ccccc3OCC2=S)c1 | 50 (≈ 186 µM) | 400 (≈ 1480 µM) | 800 (≈ 2970 µM) | 800 (≈ 2970 µM) | 100 (≈ 371 µM)
COc1ccc(N2Cc3ccccc3OCC2=S)cc1 | 50 (≈ 175 µM) | 200 (≈ 701 µM) | 800 (≈ 2800 µM) | 400 (≈ 1400 µM) | 100 (≈ 350 µM)
O=[N+]([O-])c1ccc(N2Cc3ccccc3OCC2=S)cc1 | 50 (≈ 166 µM) | 200 (≈ 666 µM) | 800 (≈ 2660 µM) | > 1600 | 50 (≈ 166 µM)
S=C1COc2ccccc2CN1c1ccc(Cl)cc1 | 25 (≈ 86.3 µM) | 400 (≈ 1380 µM) | 800 (≈ 2760 µM) | 400 (≈ 1380 µM) | 100 (≈ 345 µM)
COc1cccc(N2Cc3ccccc3OCC2=S)c1 | 25 (≈ 87.6 µM) | 100 (≈ 350 µM) | 100 (≈ 350 µM) | 200 (≈ 701 µM) | 50 (≈ 175 µM)
Cc1ccc(N2Cc3ccccc3OCC2=S)cc1 | 25 (≈ 92.8 µM) | 200 (≈ 742 µM) | 200 (≈ 742 µM) | 200 (≈ 742 µM) | 25 (≈ 92.8 µM)
O=C(O)c1cn(C2CC2)c2cc(N3CCNCC3)c(F)cc2c1=O [CIPROFLOXACIN] | 0.25 (≈ 0.754 µM) | 0.04 (≈ 0.121 µM) |  | 0.25 (≈ 0.754 µM) | 
CC1(C)S[C@@H]2[C@H](NC(=O)[C@H](N)c3ccccc3)C(=O)N2[C@H]1C(=O)O [AMPICILLIN] | 0.78 (≈ 2.23 µM) | 6.25 (≈ 17.9 µM) |  | 0.78 (≈ 2.23 µM) | 
